This is an account of results in ChEMBL document CHEMBL5634147, “Multi-targeted anti-Alzheimer's agents: Synthesis, biological evaluation, and molecular modeling study of some pyrazolopyridine hybrids” (Eur J Med Chem, 2023).

Activity calls are given as the source filed them. The calls are words filed in the database; no cut-off is given here. Non-standard residues stand in square brackets, D forms with d. Residues, ends and D or L forms follow the SMILES beside them. *: point of attachment. Myristoyl = CCCCCCCCCCCCCC(=O)*; pS = N[C@@H](COP(=O)(O)O)C(=O)O

One data set deals with Acetylcholinesterase (Homo sapiens, UniProt P22303). Put plainly: Inhibition of human AChE using acetylthiocholine iodide as substrate measured after 15 to 20 mins by DTNB reagent based Ellman's method.
Data set [1] has as its target Glycogen synthase kinase-3 beta (Homo sapiens, UniProt P49841). Put plainly: Inhibition of human GSK3beta by luminescent microplate reader method.
The target of the next data set is Cholinesterase (Homo sapiens, UniProt P06276). The data set is described as follows: Inhibition of human BuChE measured after 15 to 20 mins by DTNB reagent based Ellman's method.
Data set [2] concerns the target T1, Microtubule-associated protein tau (Homo sapiens, UniProt P10636). The data set is described as follows: Inhibition of human tau protein aggregation at 10 uM incubated for 1.5 hrs by TMB substrate based ELISA relative to control.
Data set [3] deals with T1, Microtubule-associated protein tau. Put plainly: Inhibition of human tau protein aggregation incubated for 1.5 hrs by TMB substrate based ELISA.
Data set [4] deals with T2, Amyloid-beta precursor protein (Homo sapiens, UniProt P05067). The data set is described as follows: Inhibition of self-mediated Amyloid beta (1 to 42) (unknown origin) aggregation at 10 uM measured every 5 mins by ThT fluorescence based assay relative to control.
Data set [5] addresses T2, Amyloid-beta precursor protein. Put plainly: Inhibition of self mediated Amyloid beta (1 to 42) (unknown origin) aggregation measured every 5 mins by ThT fluorescence based assay.
The nature of data set [6]: Metal chelating activity assessed as Fe2+-compound complex formation by measuring hyperchromic shift in presence of FeSO4 by UV-Vis spectroscopy.
Data set [7] in a line: Metal chelating activity assessed as Cu2+-compound complex formation by measuring hyperchromic shift in presence of CuSO4 by UV-Vis spectroscopy.
A short description of data set [8]: Metal chelating activity assessed as Zn2+-compound complex formation by measuring hyperchromic shift in presence of ZnSO4 by UV-Vis spectroscopy.
Data set [9] can be described thus: Cytotoxicity against human WI-38 cells assessed as inhibition of cell growth incubated for 72 hrs by MTT assay. Type of data set: toxicity, cell-based.
Another data set has as its system human AChE. The data set is described as follows: Safety index, ratio of IC50 for cytotoxicity against human WI-38 cells to IC50 for human AChE. Type of data set: toxicity, cell-based. The following applies: read-out: Ratio IC50.
Data set [10] in a line: Cytotoxicity against human WI-38 cells assessed as cell viability upto 3.125 uM incubated for 72 hrs by MTT assay relative to control. Type of data set: toxicity, cell-based. The following applies: read-out: Activity.
A short description of data set [11]: Metal chelating activity assessed as Cu2+-compound complex formation by measuring hypochromic shift in presence of CuSO4 by UV-Vis spectroscopy.
Data set [12] can be described thus: Metal chelating activity assessed as Zn2+-compound complex formation by measuring hypochromic shift in presence of ZnSO4 by UV-Vis spectroscopy.

Chain of Glycogen synthase kinase-3 beta (P49841 whole entry): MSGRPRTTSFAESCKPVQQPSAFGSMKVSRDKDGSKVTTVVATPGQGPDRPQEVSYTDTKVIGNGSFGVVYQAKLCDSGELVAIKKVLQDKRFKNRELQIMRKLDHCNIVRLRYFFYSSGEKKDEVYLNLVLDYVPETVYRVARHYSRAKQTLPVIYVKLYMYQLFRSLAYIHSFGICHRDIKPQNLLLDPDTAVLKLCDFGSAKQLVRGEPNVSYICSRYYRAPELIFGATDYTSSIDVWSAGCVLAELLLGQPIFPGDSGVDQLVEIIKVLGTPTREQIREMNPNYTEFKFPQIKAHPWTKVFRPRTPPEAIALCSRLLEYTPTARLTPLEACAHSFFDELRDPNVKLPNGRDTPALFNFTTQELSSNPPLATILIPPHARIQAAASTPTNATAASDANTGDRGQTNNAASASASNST
T1 sequence (P10636 whole entry): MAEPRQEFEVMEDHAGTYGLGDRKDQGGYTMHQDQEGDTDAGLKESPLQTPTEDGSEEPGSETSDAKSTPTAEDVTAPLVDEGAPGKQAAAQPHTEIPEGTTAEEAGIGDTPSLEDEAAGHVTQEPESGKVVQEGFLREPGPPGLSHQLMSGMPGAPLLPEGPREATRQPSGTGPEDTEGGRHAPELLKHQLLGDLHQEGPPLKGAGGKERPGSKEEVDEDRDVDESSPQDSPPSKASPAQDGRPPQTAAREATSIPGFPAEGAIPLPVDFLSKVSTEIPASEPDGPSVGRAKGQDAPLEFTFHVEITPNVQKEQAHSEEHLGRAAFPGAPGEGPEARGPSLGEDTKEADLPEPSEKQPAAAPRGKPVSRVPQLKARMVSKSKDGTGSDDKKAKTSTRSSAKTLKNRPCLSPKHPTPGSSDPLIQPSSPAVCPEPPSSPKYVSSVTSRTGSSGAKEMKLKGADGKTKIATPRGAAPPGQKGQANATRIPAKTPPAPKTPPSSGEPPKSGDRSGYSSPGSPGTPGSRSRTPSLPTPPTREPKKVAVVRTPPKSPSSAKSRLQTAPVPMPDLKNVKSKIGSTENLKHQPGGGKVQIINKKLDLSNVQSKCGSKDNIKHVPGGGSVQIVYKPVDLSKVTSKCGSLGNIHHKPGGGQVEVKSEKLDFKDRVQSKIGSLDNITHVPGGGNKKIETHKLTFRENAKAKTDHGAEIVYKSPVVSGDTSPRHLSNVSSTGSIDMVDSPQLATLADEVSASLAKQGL
T2 sequence (P05067 whole entry): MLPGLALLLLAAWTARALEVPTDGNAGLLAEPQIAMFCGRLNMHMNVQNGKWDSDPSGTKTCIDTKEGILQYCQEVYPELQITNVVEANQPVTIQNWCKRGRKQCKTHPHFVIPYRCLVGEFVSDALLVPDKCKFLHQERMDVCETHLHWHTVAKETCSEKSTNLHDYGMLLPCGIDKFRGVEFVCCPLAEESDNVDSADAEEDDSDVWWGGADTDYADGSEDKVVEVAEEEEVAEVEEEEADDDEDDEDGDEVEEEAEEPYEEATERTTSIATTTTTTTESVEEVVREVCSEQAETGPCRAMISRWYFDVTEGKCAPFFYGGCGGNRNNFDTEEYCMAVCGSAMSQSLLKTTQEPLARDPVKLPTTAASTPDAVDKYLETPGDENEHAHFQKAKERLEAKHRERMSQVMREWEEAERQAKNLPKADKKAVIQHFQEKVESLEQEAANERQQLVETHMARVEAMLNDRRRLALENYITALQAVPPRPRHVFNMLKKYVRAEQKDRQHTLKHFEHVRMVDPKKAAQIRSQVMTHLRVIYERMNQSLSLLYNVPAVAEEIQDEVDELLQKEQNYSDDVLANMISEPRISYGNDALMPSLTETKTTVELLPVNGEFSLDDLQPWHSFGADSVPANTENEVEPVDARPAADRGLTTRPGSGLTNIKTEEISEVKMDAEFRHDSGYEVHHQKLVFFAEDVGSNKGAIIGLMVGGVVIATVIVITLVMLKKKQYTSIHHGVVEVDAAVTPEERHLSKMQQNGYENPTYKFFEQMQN
Chain of Acetylcholinesterase (P22303 whole entry): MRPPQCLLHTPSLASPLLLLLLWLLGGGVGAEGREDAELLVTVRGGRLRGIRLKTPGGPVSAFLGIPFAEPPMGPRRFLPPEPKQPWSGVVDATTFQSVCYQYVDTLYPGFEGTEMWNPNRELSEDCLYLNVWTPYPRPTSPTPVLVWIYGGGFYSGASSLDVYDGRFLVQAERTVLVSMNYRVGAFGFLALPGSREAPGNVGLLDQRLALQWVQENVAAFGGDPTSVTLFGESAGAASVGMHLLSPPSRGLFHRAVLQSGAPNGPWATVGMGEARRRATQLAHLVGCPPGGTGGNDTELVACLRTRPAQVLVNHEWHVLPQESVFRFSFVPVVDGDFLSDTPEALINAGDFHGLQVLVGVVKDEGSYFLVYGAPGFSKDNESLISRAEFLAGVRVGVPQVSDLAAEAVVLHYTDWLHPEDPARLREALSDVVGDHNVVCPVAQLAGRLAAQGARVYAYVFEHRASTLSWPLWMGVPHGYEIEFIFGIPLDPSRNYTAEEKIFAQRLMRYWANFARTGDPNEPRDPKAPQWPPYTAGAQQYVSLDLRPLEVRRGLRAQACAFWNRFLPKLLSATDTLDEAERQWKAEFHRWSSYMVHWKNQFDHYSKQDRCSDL
Chain of Cholinesterase (P06276 whole entry): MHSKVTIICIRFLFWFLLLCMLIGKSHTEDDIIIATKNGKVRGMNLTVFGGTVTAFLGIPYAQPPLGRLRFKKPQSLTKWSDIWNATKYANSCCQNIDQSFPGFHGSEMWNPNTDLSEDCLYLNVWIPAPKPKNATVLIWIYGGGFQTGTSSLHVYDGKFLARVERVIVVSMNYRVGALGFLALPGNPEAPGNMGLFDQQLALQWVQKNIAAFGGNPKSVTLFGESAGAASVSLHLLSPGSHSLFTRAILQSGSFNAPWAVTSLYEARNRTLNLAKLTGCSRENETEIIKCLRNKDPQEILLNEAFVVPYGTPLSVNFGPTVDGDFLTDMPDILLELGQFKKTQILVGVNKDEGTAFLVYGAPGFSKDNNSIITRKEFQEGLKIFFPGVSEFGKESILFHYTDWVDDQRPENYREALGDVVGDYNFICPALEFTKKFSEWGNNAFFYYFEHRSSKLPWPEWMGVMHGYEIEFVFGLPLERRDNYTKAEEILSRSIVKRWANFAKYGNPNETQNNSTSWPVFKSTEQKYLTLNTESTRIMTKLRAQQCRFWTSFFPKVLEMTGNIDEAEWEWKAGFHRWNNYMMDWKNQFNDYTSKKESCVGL

For `COc1ccc(-c2cc(-c3ccccc3)nc3[nH]nc(N)c23)cc1`, the IC50 against Acetylcholinesterase was determined as 22400 nM.

`COc1ccc(-c2cc(-c3ccc(Br)cc3)nc3[nH]nc(N)c23)cc1` gave an IC50 against Acetylcholinesterase of 350 nM.

On Acetylcholinesterase, `COc1ccc(-c2cc(-c3ccc(Br)cc3)c3c(N)n[nH]c3n2)cc1` showed an IC50 of 3720 nM.

Consider `COc1cc(-c2cc(-c3ccccc3)nc3[nH]nc(N)c23)cc(OC)c1OC`, for which the IC50 against Acetylcholinesterase was 1890 nM.

For the compound `CCCCCCCCCCCCCC(=O)N[C@@H](CCCCN)C(=O)N[C@@H](CCC(=O)O)C(=O)N[C@@H](C)C(=O)N1CCC[C@H]1C(=O)N1CCC[C@H]1C(=O)N[C@@H](CO)C(=O)N1CCC[C@H]1C(=O)N1CCC[C@H]1C(=O)N[C@@H](CCC(N)=O)C(=O)N[C@@H](COP(=O)(O)O)C(=O)N1CCC[C@H]1C(=O)O` (Myristoyl-KEAPPSPPQ[pS]P-OH), the IC50 in data set [1] is 1000 nM.

Consider `Nc1n[nH]c2nc(-c3ccc(Br)cc3)cc(-c3ccc(Br)cc3)c12`, for which the IC50 on Acetylcholinesterase came out at 170 nM; on Cholinesterase, 170 nM; in data set [1], 210 nM; in data set [3], 11600 nM; in data set [5] it was 460 nM. Further, the inhibition is 66% in data set [2] and 79% in data set [4]. Also, the outcome in [6], in data set [7] and in data set [8] was Active. In addition, the IC50 at 72 h in [9] stood at 58300 nM. The selectivity ratio with human AChE came out at 343. Also, the viability at 72 h, 3.125 µM in data set [10] amounted to 100%.

Regarding `COc1ccc(-c2cc(-c3ccc(OC)c(OC)c3)c3c(N)n[nH]c3n2)cc1`, the IC50 against Acetylcholinesterase was 810 nM.

In turn, `Nc1n[nH]c2nc(-c3ccccc3)cc(-c3ccc(Br)cc3)c12` had an IC50 at Acetylcholinesterase of 2240 nM.

At Acetylcholinesterase, `Nc1n[nH]c2nc(-c3ccccc3)cc(-c3ccccc3)c12` displayed an IC50 of 5270 nM.

As to `COc1ccc(-c2cc(-c3ccc(OC)cc3)c3c(N)n[nH]c3n2)cc1`, the IC50 on Acetylcholinesterase was determined as 260 nM.

On to `COc1ccc(-c2cc(-c3cc(OC)c(OC)c(OC)c3)c3c(N)n[nH]c3n2)cc1`, for which half-maximal inhibition against Acetylcholinesterase (IC50) required 6010 nM.

As to `COc1ccc(-c2cc(-c3ccc(Br)cc3)nc3[nH]nc(N)c23)cc1OC`, the IC50 against Acetylcholinesterase is 160 nM; against Cholinesterase, 690 nM; in [1] it was 260 nM; in [3], 20300 nM; in [5] it was 770 nM. For the same compound, the inhibition in data set [2] was found to be 60%; in [4], 75%. Moreover, the result in data set [6], in data set [11] and in data set [12] was Active. In addition, in data set [9], the IC50 at 72 h is 84500 nM. The selectivity ratio with human AChE is 528. The viability at 72 h, 3.125 µM in data set [10] amounted to 100%.

On Acetylcholinesterase, `COc1ccc(-c2cc(-c3ccccc3)nc3[nH]nc(N)c23)cc1OC` registered an IC50 of 9630 nM.

On Acetylcholinesterase, `COc1cc(-c2cc(-c3ccc(Br)cc3)nc3[nH]nc(N)c23)cc(OC)c1OC` returned an IC50 of 630 nM.
